Experimental findings from article doi:10.1101/2020.03.06.976563v1 (biorxiv, 2020) are described below.

Where two headings read alike, the source gives them in different places.

The target in experiment [1] is T1, STK16 (Homo sapiens, UniProt O75716). Briefly: biochemical.
Experiment [2] addresses T2, BMP2K (Homo sapiens, UniProt Q9NSY1). Briefly: biochemical.
For experiment [3], the target named is T3, AAK1 (Homo sapiens, UniProt Q2M2I8). Briefly: biochemical.
Experiment [4] addresses T4, cyclin G associated kinase (GAK), kinase domain (Homo sapiens, UniProt O14976).
T4 sequence (O14976 12-347 limits assumed): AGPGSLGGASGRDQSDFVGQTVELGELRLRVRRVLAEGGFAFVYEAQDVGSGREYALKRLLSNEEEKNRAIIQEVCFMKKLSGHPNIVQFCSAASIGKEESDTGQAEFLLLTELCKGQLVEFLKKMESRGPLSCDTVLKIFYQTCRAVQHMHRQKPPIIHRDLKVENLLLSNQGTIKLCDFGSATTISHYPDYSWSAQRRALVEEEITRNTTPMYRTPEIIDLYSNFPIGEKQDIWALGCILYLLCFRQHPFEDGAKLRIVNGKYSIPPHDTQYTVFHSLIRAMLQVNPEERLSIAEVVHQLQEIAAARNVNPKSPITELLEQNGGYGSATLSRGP
Briefly: biochemical.

Experiment [5] addresses T4, cyclin G associated kinase (GAK), kinase domain. Briefly: TR-FRET ligand binding displacement assay, 16-point dose response. (In general: TR-FRET usually uses a lanthanide donor and a delayed reading to cut background.)
For experiment [6] the target is unchanged. Briefly: biochemical. This is another data set of the same source.
Experiment [7] has as its target T1, STK16. Briefly: biochemical. This is another data set of the same source.
The target in experiment [8] is T2, BMP2K. Briefly: biochemical. This is another data set of the same source.
Experiment [9] concerns the target T3, AAK1. Briefly: biochemical. The source holds these as a separate data set.

T2 sequence (Q9NSY1 whole entry): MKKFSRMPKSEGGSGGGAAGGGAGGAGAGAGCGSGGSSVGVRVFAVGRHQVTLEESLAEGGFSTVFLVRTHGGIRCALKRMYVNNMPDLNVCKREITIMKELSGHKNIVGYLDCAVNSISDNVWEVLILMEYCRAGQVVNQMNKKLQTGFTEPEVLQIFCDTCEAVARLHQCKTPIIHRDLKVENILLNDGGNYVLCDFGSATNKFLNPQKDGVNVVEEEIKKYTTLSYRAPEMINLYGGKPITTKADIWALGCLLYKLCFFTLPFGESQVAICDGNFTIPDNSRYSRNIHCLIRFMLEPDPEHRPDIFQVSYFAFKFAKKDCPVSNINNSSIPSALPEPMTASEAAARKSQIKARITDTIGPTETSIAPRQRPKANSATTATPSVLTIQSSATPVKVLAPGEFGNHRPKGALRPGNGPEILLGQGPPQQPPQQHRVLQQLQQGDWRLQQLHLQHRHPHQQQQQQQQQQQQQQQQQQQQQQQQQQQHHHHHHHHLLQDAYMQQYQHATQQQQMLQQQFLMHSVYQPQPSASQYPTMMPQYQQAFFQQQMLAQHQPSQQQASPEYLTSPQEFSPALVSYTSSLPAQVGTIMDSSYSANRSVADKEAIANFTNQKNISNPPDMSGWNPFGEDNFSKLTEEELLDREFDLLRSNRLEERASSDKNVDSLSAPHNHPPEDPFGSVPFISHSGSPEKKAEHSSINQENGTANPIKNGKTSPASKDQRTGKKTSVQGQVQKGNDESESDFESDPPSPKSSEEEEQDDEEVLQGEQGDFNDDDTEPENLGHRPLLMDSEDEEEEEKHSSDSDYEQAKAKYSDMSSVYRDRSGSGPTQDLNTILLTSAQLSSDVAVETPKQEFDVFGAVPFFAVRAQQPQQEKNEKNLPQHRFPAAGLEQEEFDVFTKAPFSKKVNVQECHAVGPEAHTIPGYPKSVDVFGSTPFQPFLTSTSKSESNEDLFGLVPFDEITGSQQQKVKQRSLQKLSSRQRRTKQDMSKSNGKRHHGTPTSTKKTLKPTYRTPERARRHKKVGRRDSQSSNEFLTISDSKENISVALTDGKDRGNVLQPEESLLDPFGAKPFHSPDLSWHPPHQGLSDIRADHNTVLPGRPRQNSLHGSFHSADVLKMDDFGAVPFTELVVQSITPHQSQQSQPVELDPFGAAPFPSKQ
T1 sequence (O75716 whole entry): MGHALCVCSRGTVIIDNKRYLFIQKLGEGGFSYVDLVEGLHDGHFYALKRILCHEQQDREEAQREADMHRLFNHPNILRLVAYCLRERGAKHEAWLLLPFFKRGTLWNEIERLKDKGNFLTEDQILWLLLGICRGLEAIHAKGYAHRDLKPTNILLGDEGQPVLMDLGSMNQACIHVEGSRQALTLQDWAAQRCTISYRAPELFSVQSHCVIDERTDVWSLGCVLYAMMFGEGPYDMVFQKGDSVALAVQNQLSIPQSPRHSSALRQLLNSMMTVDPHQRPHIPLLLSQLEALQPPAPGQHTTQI
T3 sequence (Q2M2I8 whole entry, the tested form may be a part): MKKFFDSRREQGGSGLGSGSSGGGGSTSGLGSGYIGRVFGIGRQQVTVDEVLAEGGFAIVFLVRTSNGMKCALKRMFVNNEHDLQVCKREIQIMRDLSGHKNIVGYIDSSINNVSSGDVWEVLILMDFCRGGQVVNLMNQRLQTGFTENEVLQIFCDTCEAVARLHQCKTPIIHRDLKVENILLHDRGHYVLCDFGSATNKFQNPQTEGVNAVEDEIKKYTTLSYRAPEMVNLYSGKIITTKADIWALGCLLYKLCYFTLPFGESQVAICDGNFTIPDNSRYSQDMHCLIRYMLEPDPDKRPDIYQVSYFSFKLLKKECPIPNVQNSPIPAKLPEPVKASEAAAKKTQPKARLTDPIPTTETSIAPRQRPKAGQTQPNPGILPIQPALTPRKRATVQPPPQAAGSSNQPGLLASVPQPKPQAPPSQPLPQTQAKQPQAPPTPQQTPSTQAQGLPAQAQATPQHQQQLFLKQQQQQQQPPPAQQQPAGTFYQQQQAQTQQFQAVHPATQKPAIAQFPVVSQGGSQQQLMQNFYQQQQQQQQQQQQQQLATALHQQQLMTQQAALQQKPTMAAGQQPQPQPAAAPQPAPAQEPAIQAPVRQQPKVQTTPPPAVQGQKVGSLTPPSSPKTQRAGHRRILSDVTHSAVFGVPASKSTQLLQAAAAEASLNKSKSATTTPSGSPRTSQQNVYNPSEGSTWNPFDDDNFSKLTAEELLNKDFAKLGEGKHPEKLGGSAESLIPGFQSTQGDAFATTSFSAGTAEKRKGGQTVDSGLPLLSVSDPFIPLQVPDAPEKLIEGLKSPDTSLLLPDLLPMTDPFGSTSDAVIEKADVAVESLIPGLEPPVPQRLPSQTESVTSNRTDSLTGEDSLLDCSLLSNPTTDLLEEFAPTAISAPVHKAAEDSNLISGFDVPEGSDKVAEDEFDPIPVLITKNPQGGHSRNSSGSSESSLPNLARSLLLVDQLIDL

On to `Oc1cccc(Nc2ccnc3ccc(C(F)(F)F)cc23)c1` [compound 5, 3-((6-(trifluoromethyl)quinolin-4-yl)amino)phenol], for which the Ki in experiment [1] is 3 µM; in [2], 5.8 µM; in [3], 2.6 µM; in experiment [4] it was 0.0047 µM.

As to `O=[N+]([O-])c1cccc(Nc2ccnc3ccc(C(F)(F)F)cc23)c1` [compound 6, N-(3-nitrophenyl)-6-(trifluoromethyl)quinolin-4-amine], the Ki is greater than 100 µM in experiment [1], greater than 100 µM in experiment [2], greater than 100 µM in experiment [3] and 0.21 µM in [4].

As to `CN(C)c1cccc(Nc2ccnc3ccc(C(F)(F)F)cc23)c1` [compound 8, ^1N,^1N-dimethyl-3-N-[6-(trifluoromethyl)quinolin-4-yl]benzene-1,3-diamine], the inhibition constant (Ki) was 13 µM in experiment [1], greater than 100 µM in experiment [2], greater than 100 µM in experiment [3] and 0.65 µM in experiment [5].

Regarding `CN(C)c1cccc(Nc2ccnc3ccccc23)c1` [compound 10, N1 ,N1-dimethyl-N3-(quinolin-4-yl)benzene-1,3-diamine], the Ki in experiment [1] is greater than 100 µM; in experiment [2], greater than 100 µM; in [3], 29 µM; in experiment [4], 0.97 µM.

Consider `OCc1cccc(Nc2ccnc3ccc(C(F)(F)F)cc23)c1` [compound 11, (3-{[6-(trifluoromethyl)quinolin-4-yl]amino}phenyl)methanol], for which the Ki in experiment [1] stood at 20 µM; in [2], 15 µM; in experiment [3] it was 10 µM; in experiment [4] it was 0.06 µM.

As for `OCc1ccccc1Nc1ccnc2ccc(C(F)(F)F)cc12` [compound 12, (2-{[6-(trifluoromethyl)quinolin-4-yl]amino}phenyl)methanol], the Ki in experiment [1] was 5 µM; in experiment [2], 16 µM; in experiment [3], 8.5 µM; in [4] it was 0.041 µM.

Regarding `COc1cccc(Nc2ccnc3ccc(Br)cc23)c1` [compound 13, 6-bromo-N-(3-methoxyphenyl)quinolin-4-amine], the Ki in experiment [6] stood at 0.0029 µM; in [7] it was 32 µM; in experiment [8] it was 7 µM; in experiment [9], 3 µM.

Consider `Oc1cccc(Nc2ccnc3ccc(Br)cc23)c1` [compound 14, 3-((6-bromoquinolin-4-yl)amino)phenol], for which the Ki in experiment [6] was determined as 0.0012 µM; in experiment [7] it was 5.7 µM; in [8] it was 2 µM; in experiment [9] it was 0.5 µM.

Take `COc1cccc(Nc2ccnc3ccccc23)c1` [compound 15, N-(3-methoxyphenyl)quinolin-4-amine]: the Ki was greater than 100 µM in experiment [1], greater than 100 µM in experiment [2], 25 µM in [3] and 0.027 µM in experiment [4].

For `Oc1cccc(Nc2ccnc3ccccc23)c1` [compound 16, 3-(quinolin-4-ylamino)phenol], the Ki in experiment [1] was greater than 100 µM; in experiment [2] it was 30 µM; in [3], 6.6 µM; in [4], 0.012 µM.

`COc1cccc(Nc2ccnc3ccc(OC)cc23)c1` [compound 17, 6-methoxy-N-(3-methoxyphenyl)quinolin-4-amine]: the Ki is greater than 100 µM in [1], 26 µM in [2], 9.1 µM in experiment [3] and 0.0079 µM in experiment [4].

Regarding `COc1ccc2nccc(Nc3cccc(O)c3)c2c1` [compound 18, 3-((6-methoxyquinolin-4-yl)amino)phenol], the Ki was 27 µM in [1], 7.3 µM in [2], 1.6 µM in experiment [3] and 0.0057 µM in [4].

Take `COc1cccc(Nc2ccnc3ccc(S(C)(=O)=O)cc23)c1` [compound 19, 6-methanesulfonyl-N-(3-methoxyphenyl)quinolin-4-amine]: the Ki in experiment [1] was greater than 100 µM; in experiment [2], 19 µM; in [3] it was 23 µM; in [4], 0.03 µM.

Regarding `O=[N+]([O-])c1cccc(Nc2ccnc3ccc(Br)cc23)c1` [compound 21, 6-bromo-N-(3-nitrophenyl)quinolin-4-amine], the Ki was 0.056 µM in experiment [6], greater than 100 µM in experiment [7], greater than 100 µM in experiment [8] and 40 µM in [9].

On to `Brc1ccc2nccc(Nc3ccc4c(c3)OCO4)c2c1` [compound 25, N-(2H-1,3-benzodioxol-5-yl)-6-bromoquinolin-4-amine], for which the Ki in experiment [6] came out at 0.035 µM; in [7], 10 µM; in experiment [8], 12 µM; in [9] it was 5.2 µM.

With `Brc1ccc2nccc(Nc3cccc4c3OCO4)c2c1` [compound 27, N-(Benzo[d][1,3]dioxol-4-yl)-6-bromoquinolin-4-amine], the Ki in experiment [7], in experiment [8] and in experiment [9] was greater than 100 µM in each case.

Take `COc1cccc(Nc2ncnc3ccc(Br)cc23)c1` [compound 29, 6-bromo-N-(3-methoxyphenyl)quinazolin-4-amine]: the Ki in experiment [6] was 0.011 µM; in experiment [7], 5.5 µM; in experiment [8], 1.3 µM; in experiment [9], 0.39 µM.

As to `FS(F)(F)(F)(F)c1cccc(Nc2ccnc3ccc(Br)cc23)c1` [compound 32, 6-bromo-N-(3-(pentafluoro-λ^6-sulfaneyl)phenyl)quinolin-4-amine], the Ki was 4.9 µM in experiment [6], greater than 100 µM in experiment [7], greater than 100 µM in [8] and greater than 100 µM in experiment [9].

On to `CC(C)(C)Oc1cccc(Nc2ccnc3ccc(Br)cc23)c1` [compound 33, 6-bromo-N-[3-(tert-butoxy)phenyl]quinolin-4-amine], for which the Ki in experiment [6] was 2.2 µM; in experiment [7], 12 µM; in [8] it was greater than 100 µM; in [9], 15 µM.

Consider `CC(C)(C)c1cccc(Nc2ccnc3ccc(Br)cc23)c1` [compound 34, 6-bromo-N-(3-tert-butylphenyl)quinolin-4-amine], for which the Ki was 2.6 µM in [6], greater than 100 µM in [7], greater than 100 µM in experiment [8] and greater than 100 µM in experiment [9].

The term Ki denotes the dissociation constant of the complex between target and ligand, obtained from inhibition or displacement.
